# According to patent US20130172294A1, “Treatment with VB-201” (Vascular Biogenics Ltd., priority 2010, published 2013):
# “Also recorded” adds a separate entry of the source.
# How the values were obtained:
# [1] = Safety and tolerability of repeated doses 5-30 mg (Example 2); assay type: in vivo, human
# Text: (§1) Safety and tolerability of VB-201 was judged by evaluating the incidence of abnormal findings in the following measurements: vital signs: systolic and diastolic blood pressure, heart rate, respiratory rate, body temperature; physical examination; 12-lead electrocardiogram; laboratory tests of blood samples for: complete blood count, prothrombin time/partial thromboplastin time, LDL- and HDL-cholesterol, total cholesterol, triglycerides, glucose, blood urea nitrogen, sodium, potassium, creatinine, calcium, phosphorus, creatinine phosphokinase, lactate dehydrogenase, aspartate transaminase, alanine transaminase, γ-glutamyl transferase, alkaline phosphatase, protein, albumin, total bilirubin, total IgM and IgG antibodies, interleukin-12/23 p40, tumor necrosis factor-α, and interleukin-6, as well as routine urinalysis; and all adverse events, whether or not considered serious, and whether or not considered related to the investigational agent, according to the criteria for Good Clinical Practice. Treatment-emergent adverse events were defined as any adverse event that started on or after administration of the first dose of VB-201, and no more than 30 days after administration of the last dose, or are ongoing at the time of the first dose and worsened in severity or frequency during treatment. […] The subjects were all healthy volunteers. […] 10 subjects received a placebo. […]
# [2] = Safety and tolerability of repeated doses 40 and 80 mg (Example 4); assay type: in vivo, human
# Text: as §1, with “6” for “10”
# [3] = Pharmacokinetics of VB-201 in human subjects, summary over the studies; assay type: in vivo
# Protocol: Determination of VB-201 concentrations in plasma was performed using an HPLC-MS/MS (high performance liquid chromatography with tandem mass spectrometric detection) assay. Calibration was for a range of from 5 to 500 ng/ml for low doses and from 50 to 5000 ng/ml for high doses. Pharmacokinetic parameters were estimated by using a non-compartmental method, except for the AUC (area under curve), which was determined using a (log-) trapezoidal rule as the area above the previous trough level. All calculations were made using PKWizard (developed by Russell Barbare and Dr. […] was validated against WinNonlin (Pharsight Corp.), which is an FDA-recognized validated program. Pharmacokinetic parameters were calculated by the program according to standard methods used in the art. Calculation of the pharmacokinetic characteristics was based on the actual blood sampling time (in hours), with predose times set to zero. Concentrations below the LLOQ (lower limit of quantification; 4.974 ng/ml) were assumed to be zero.
# [4] = test system: Human monocytes (CD14+ cells)
# Protocol: Human monocytes (CD14^+ cells) were isolated from whole blood of healthy donors. Following PBMC (peripheral blood mononuclear cell) separation from whole blood using Ficoll-Paque and leucosep tubes, CD14^+ cells were separated using specific CD14 micro beads (Miltenyi Biotech). Purity of the CD14^+ population was validated using specific monoclonal CD14 antibody by FACS analysis. For chemoattractant, RANTES (100 ng/ml), MIP-1α (macrophage inflammatory protein-1a; 50 ng/ml), MCP-1 (monocyte chemotactic protein-1; 50 ng/ml) or MCP-3 (50 ng/ml) were dissolved in 2% fetal bovine serum/RPMI-1640 and placed at the lower chamber of QCM™ 24-well migration assay plate (Corning-Costar). CD14+ cells were pre-incubated for 30 minutes with solvent (1% ethanol/PBS) or VB-201 at 8 μM (or different concentrations ranging between 1.7-17 μM, not shown). Migration assay was conducted by seeding 300,000 treated cells in the upper chamber, followed by incubated for 3-4 hours, after which the number of migrated cells was determined by FACS (fluorescence activated cell sorting).
# VB-201 was tested in vitro as described hereinabove for possible effects on migration of human primary monocytes towards inflammatory chemokines using a trans-well assay. For a broad analysis, several chemoattractants which serve as ligands for different chemokine receptors were used. Two assays were performed in triplicates for each chemoattractant.
structure (smiles),measurement,setting,value
"CCCCCCCCCCCCCCCCOCC(COP(=O)([O-])OCC[N+](C)(C)C)OCCCCC(=O)O (centres unmarked) [VB-201, 1-hexadecyl-2-(4′-carboxybutyl)-glycerol-3-phosphocholine]",serious or severe adverse events,"[1]; daily 5-30 mg, 14 days",No serious or severe adverse events occurred
same,safety and tolerability,[1]; orally for 14 days at daily doses 5 mg to 30 mg,as safe and tolerable as placebo
same,serious adverse events,"[2]; daily 40 or 80 mg, 14 or 28 day cohorts",No serious adverse events were reported
same,safety and tolerability,[2]; daily doses of up to 80 mg for up to 28 days,"both safe and well-tolerated; also recorded: well-tolerated by subjects, and no substantial toxicity was observed"
same,time of peak plasma concentrations after administration,"[3]; oral, over the studies",6 to 11 h
same,minimum concentration during a 24-hour period relative to maximum concentration,[3]; regular once-daily administration (FIGS. 2 and 4),at least 66.7%
same,migration of human primary monocytes towards MCP-1,"[4]; 8 μM VB-201, 30 min pre-treatment, MCP-1 50 ng/ml",significantly (P<0.05) reduced
same,migration of human primary monocytes towards MCP-3,"[4]; 8 μM VB-201, 30 min pre-treatment, MCP-3 50 ng/ml",significantly (P<0.05) reduced
same,migration of human primary monocytes towards MIP-1α,"[4]; 8 μM VB-201, 30 min pre-treatment, MIP-1α 50 ng/ml",significantly (P<0.05) reduced
same,migration of human primary monocytes towards RANTES,"[4]; 8 μM VB-201, 30 min pre-treatment, RANTES 100 ng/ml",significantly (P<0.05) reduced
same,dose dependence of inhibition of monocyte migration,"[4]; in vitro, 1.7-17 μM",dose-dependent
